What was measured:
Assay in all cases: relative viability (nuclei count vs DMSO), 5 days (fraction); higher = more cells survive
NCI-H520 = test system: NCI-H520
In short: (§1)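 Lung cancer cell lines were seeded in 1536-well plates and dosed by pin tool the next day, with either a single drug or a fixed anchor-drug dose combined with five library-drug doses (not always all listed) spaced in √10 steps. Five days later, one step fixed the cells and stained their nuclei (final 0.05% Triton X-100, 1% formaldehyde, 1 ug/ml Hoechst), and nuclei were counted on 4× images. Relative viability is the nuclei count in treated wells divided by the count in vehicle wells, and each value is the median of duplicate plates.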

CAL-12T = test system: CAL-12T
In short: as §1

LCLC-97TM1 = test system: LCLC-97TM1
In short: as §1

BEN = test system: BEN
In short: as §1

NCI-H2087 = test system: NCI-H2087
In short: as §1

PC-3 [JPC-3] = test system: PC-3 [JPC-3]
In short: as §1

NCI-H2023 = test system: NCI-H2023
In short: as §1

HCC-15 = test system: HCC-15
In short: as §1

NCI-H727 = test system: NCI-H727
In short: as §1

NCI-H650 = test system: NCI-H650
In short: as §1

NCI-H1915 = test system: NCI-H1915
In short: as §1

LC-2-ad = test system: LC-2-ad
In short: as §1

NCI-H1944 = test system: NCI-H1944
In short: as §1

H3255 = test system: H3255
In short: as §1

NCI-H661 = test system: NCI-H661
In short: as §1

NCI-H460 = test system: NCI-H460
In short: as §1

NCI-H596 = test system: NCI-H596
In short: as §1

NCI-H1651 = test system: NCI-H1651
In short: as §1

A-427 = test system: A-427
In short: as §1

NCI-H441 = test system: NCI-H441
In short: as §1

NCI-H1792 = test system: NCI-H1792
In short: as §1

ABC-1 = test system: ABC-1
In short: as §1

201T = test system: 201T
In short: as §1

Q: How did the relative viability (NCI-H520; first compound 0.04 µM) turn out when `C[C@@H]1CN(CC(=O)Nc2ccc3c(c2)Cc2cccc(-c4cc(=O)cc(N5CCOCC5)o4)c2S3)C[C@H](C)O1` + Cc1nc(NC(=O)N2CCC[C@H]2C(N)=O)sc1-c1ccnc(C(C)(C)C(F)(F)F)c1 [Alpelisib] (partner 2 µM) was run?
A: 0.974

Q: And the relative viability (NCI-H520; first compound 0.1265 µM)?
A: 0.917

Q: And the relative viability (NCI-H520; first compound 0.4 µM)?
A: 0.535

Q: And the relative viability (NCI-H520; first compound 4 µM)?
A: 0.854

Q: What about the relative viability (CAL-12T; first compound 0.04 µM) of the same molecule?
A: 1.33

Q: What about the relative viability (CAL-12T; first compound 0.1265 µM) of the same molecule?
A: 1.37

Q: And the relative viability (CAL-12T; first compound 0.4 µM)?
A: 1.19

Q: And the relative viability (CAL-12T; first compound 4 µM)?
A: 0.841

Q: What about the relative viability (LCLC-97TM1; first compound 0.1265 µM) of the same molecule?
A: 0.225

Q: What about the relative viability (LCLC-97TM1; first compound 0.4 µM) of the same molecule?
A: 0.237

Q: What about the relative viability (LCLC-97TM1; first compound 4 µM) of the same molecule?
A: 0.238

Q: What about the relative viability (BEN; first compound 0.04 µM) of the same molecule?
A: 1

Q: What about the relative viability (BEN; first compound 0.1265 µM) of the same molecule?
A: 0.968

Q: And the relative viability (BEN; first compound 0.4 µM)?
A: 1.03

Q: And the relative viability (BEN; first compound 4 µM)?
A: 1.04

Q: What about the relative viability (NCI-H2087; first compound 0.04 µM) of the same molecule?
A: 1.49

Q: What about the relative viability (NCI-H2087; first compound 0.1265 µM) of the same molecule?
A: 1.2

Q: What about the relative viability (NCI-H2087; first compound 0.4 µM) of the same molecule?
A: 1.2

Q: And the relative viability (NCI-H2087; first compound 4 µM)?
A: 0.837

Q: And the relative viability (PC-3 [JPC-3]; first compound 0.04 µM)?
A: 1.02

Q: And the relative viability (PC-3 [JPC-3]; first compound 0.1265 µM)?
A: 1

Q: And the relative viability (PC-3 [JPC-3]; first compound 0.4 µM)?
A: 1

Q: What about the relative viability (PC-3 [JPC-3]; first compound 4 µM) of the same molecule?
A: 0.952

Q: What about the relative viability (NCI-H2023; first compound 0.04 µM) of the same molecule?
A: 0.69

Q: What about the relative viability (NCI-H2023; first compound 0.1265 µM) of the same molecule?
A: 0.579

Q: And the relative viability (NCI-H2023; first compound 0.4 µM)?
A: 0.407

Q: And the relative viability (NCI-H2023; first compound 4 µM)?
A: 0.473

Q: And the relative viability (HCC-15; first compound 0.04 µM)?
A: 0.976

Q: And the relative viability (HCC-15; first compound 0.1265 µM)?
A: 0.881

Q: And the relative viability (HCC-15; first compound 0.4 µM)?
A: 0.826

Q: What about the relative viability (HCC-15; first compound 4 µM) of the same molecule?
A: 0.71

Q: What about the relative viability (NCI-H727; first compound 0.04 µM) of the same molecule?
A: 0.685

Q: And the relative viability (NCI-H727; first compound 0.1265 µM)?
A: 0.612

Q: What about the relative viability (NCI-H727; first compound 0.4 µM) of the same molecule?
A: 0.502

Q: What about the relative viability (NCI-H727; first compound 4 µM) of the same molecule?
A: 0.479

Q: And the relative viability (NCI-H650; first compound 0.04 µM)?
A: 0.949

Q: What about the relative viability (NCI-H650; first compound 0.1265 µM) of the same molecule?
A: 1.06

Q: And the relative viability (NCI-H650; first compound 0.4 µM)?
A: 1.15

Q: What about the relative viability (NCI-H650; first compound 4 µM) of the same molecule?
A: 0.895

Q: What about the relative viability (NCI-H1915; first compound 0.04 µM) of the same molecule?
A: 1.02

Q: And the relative viability (NCI-H1915; first compound 0.1265 µM)?
A: 1.08

Q: What about the relative viability (NCI-H1915; first compound 0.4 µM) of the same molecule?
A: 1.1

Q: What about the relative viability (NCI-H1915; first compound 4 µM) of the same molecule?
A: 1.04

Q: And the relative viability (LC-2-ad; first compound 0.04 µM)?
A: 1.02

Q: And the relative viability (LC-2-ad; first compound 0.1265 µM)?
A: 0.864

Q: And the relative viability (LC-2-ad; first compound 0.4 µM)?
A: 0.77

Q: And the relative viability (LC-2-ad; first compound 4 µM)?
A: 0.848

Q: And the relative viability (NCI-H1944; first compound 0.1265 µM)?
A: 0.826

Q: What about the relative viability (NCI-H1944; first compound 0.4 µM) of the same molecule?
A: 0.86

Q: What about the relative viability (NCI-H1944; first compound 4 µM) of the same molecule?
A: 0.814

Q: What about the relative viability (H3255; first compound 0.04 µM) of the same molecule?
A: 0.569

Q: And the relative viability (H3255; first compound 0.1265 µM)?
A: 0.659

Q: And the relative viability (H3255; first compound 0.4 µM)?
A: 0.549

Q: What about the relative viability (H3255; first compound 4 µM) of the same molecule?
A: 0.611

Q: What about the relative viability (NCI-H661; first compound 0.1265 µM) of the same molecule?
A: 0.741

Q: And the relative viability (NCI-H661; first compound 0.4 µM)?
A: 0.526

Q: What about the relative viability (NCI-H661; first compound 4 µM) of the same molecule?
A: 0.489

Q: And the relative viability (NCI-H460; first compound 0.04 µM)?
A: 0.517

Q: What about the relative viability (NCI-H460; first compound 0.1265 µM) of the same molecule?
A: 0.416

Q: What about the relative viability (NCI-H460; first compound 0.4 µM) of the same molecule?
A: 0.355

Q: And the relative viability (NCI-H460; first compound 4 µM)?
A: 0.265

Q: And the relative viability (NCI-H596; first compound 0.04 µM)?
A: 0.513

Q: And the relative viability (NCI-H596; first compound 0.1265 µM)?
A: 0.451

Q: What about the relative viability (NCI-H596; first compound 0.4 µM) of the same molecule?
A: 0.384

Q: What about the relative viability (NCI-H596; first compound 4 µM) of the same molecule?
A: 0.428

Q: And the relative viability (NCI-H1651; first compound 0.04 µM)?
A: 0.953

Q: And the relative viability (NCI-H1651; first compound 0.1265 µM)?
A: 0.923

Q: And the relative viability (NCI-H1651; first compound 0.4 µM)?
A: 0.881

Q: And the relative viability (NCI-H1651; first compound 4 µM)?
A: 1.06

Q: And the relative viability (A-427; first compound 0.04 µM)?
A: 1.12

Q: And the relative viability (A-427; first compound 0.1265 µM)?
A: 1.08

Q: And the relative viability (A-427; first compound 0.4 µM)?
A: 1.07

Q: And the relative viability (A-427; first compound 4 µM)?
A: 1.07

Q: What about the relative viability (NCI-H441; first compound 0.04 µM) of the same molecule?
A: 0.942

Q: And the relative viability (NCI-H441; first compound 0.4 µM)?
A: 0.675

Q: And the relative viability (NCI-H441; first compound 4 µM)?
A: 0.584

Q: And the relative viability (NCI-H1792; first compound 0.04 µM)?
A: 0.685

Q: And the relative viability (NCI-H1792; first compound 0.1265 µM)?
A: 0.677

Q: What about the relative viability (NCI-H1792; first compound 0.4 µM) of the same molecule?
A: 0.707

Q: What about the relative viability (NCI-H1792; first compound 4 µM) of the same molecule?
A: 0.665

Q: And the relative viability (ABC-1; first compound 0.1265 µM)?
A: 1.05

Q: And the relative viability (ABC-1; first compound 0.4 µM)?
A: 0.872

Q: And the relative viability (ABC-1; first compound 4 µM)?
A: 0.466

Q: And the relative viability (201T; first compound 0.04 µM)?
A: 1.04

Q: And the relative viability (201T; first compound 0.1265 µM)?
A: 1.02

Q: And the relative viability (201T; first compound 0.4 µM)?
A: 0.943

Q: And the relative viability (201T; first compound 4 µM)?
A: 0.95
